Data: US9814720B2, “Compositions and methods of inhibiting IL-17 expression of neutrophils” (priority 2014, dated 2017)

Tests used:
[1] = tested on: IL-17A; experiment: IL-17A protein and Il17a gene expression in IL-6/23-stimulated human neutrophils; assay type: cell-based
Method: Neutrophils were isolated from peripheral blood of healthy donors. Peripheral blood was incubated in 3% Dextran, and neutrophils isolated by Ficoll gradient centrifugation (Fisher Scientific), with neutrophil purity determined by staining with Wright-Giemsa.
IL-17A protein production was quantified by 2-site ELISA, according to the manufacturer's directions (R&D Biosciences).
Murine or human neutrophils were suspended at a density of 10^6 cells/ml and incubated with […] of recombinant mouse or human IL-6 and 2 μg/ml IL-23 in RPMI, and the cells were maintained for 1-3 h at 37° C. in 5% CO2. Various inhibitors were used for assessing STAT3 activation. For STAT3, neutrophils were treated with either the STAT3-SH2 inhibitor, Stattic (20 μM) obtained from Tocris, or the JAK-1, 2 inhibitor, INC424, (aka Ruxolitinib; 20 μM (Selleck BioChem)). For the determination of RORγt-dependent signaling, SR1001 (20 μM; Sigma) was used, which inhibits RORγt binding to the IL-17 promoter site. All inhibitors were added to neutrophils 2 h prior to recombinant IL-6 and IL-23 stimulation.
Neutrophil and corneal cell RNA was extracted using the RNeasy mini kit according to the manufacturer's directions (Qiagen, Valencia, Calif.). […]
The SYBR green system (Applied Biosystems, Carlsbad, Calif.) was utilized for quantitative PCR (qPCR) using ABI Biosystems. […]

[2] = tested on: human peripheral blood neutrophils; experiment: ROS production (CFDA) by human peripheral blood neutrophils incubated with Aspergillus hyphae; assay type: cell-based; conditions: IL-6/23-stimulated, inhibitor 20 μM, FIG. 6E
Method: (§1) Murine and human neutrophils were incubated with p-STAT3 (20 μM Stattic or 20 μM INC424) or RORγt inhibitors (20 μM SR1001) for 2 h. Then the cells were stimulated with […] of rIL-6 and 2 μg/ml of rIL-23 for 3 h, washed, and 2×10^5 bone marrow-derived murine neutrophils or 10^5 human peripheral blood neutrophils, with or without recombinant IL-17A, were added to each well with growing hyphae. RPMI media was used as positive control (unimpaired growth), and PBS was used as a negative control (no growth (data not shown)). After 16 h the wells were washed with PBS and the dsRed fungal mass was quantified in a 96-well fluorometer at 550/600 nm excitation/emission filter (Synergy HT, Biotek).
In vitro ROS production measured by CFDA was previously described. Briefly, 100 μg/100 μl of A. fumigatus hyphal extract (AspHE) were incubated with 2×10^5 murine or human neutrophils. Neutrophils were treated for 1 h with 1 μM Carboxyfluorescein diacetate (H2CFDA (Sigma)), which will fluoresce following ROS oxidation. Neutrophils were collected and analyzed by flow cytometry. H2CFDA pulsed neutrophils that had not been incubated with AspHE were used to set the ROS histogram gate. The average mean intensity was calculated by Accuri flow software and graphed in Prism.

[3] = tested on: A. fumigatus hyphae; experiment: In vitro fungal killing assay (hyphal coincubation) with human neutrophils; assay type: cell-based, Aspergillus fumigatus; conditions: IL-6/23-stimulated, inhibitor 20 μM, FIG. 6F
Source text: Aspergillus strains—For cornea infections and in vitro fungal killing assays, an RFP expressing strain of A. fumigatus (Af-dsRed) was used. This strain is gpdA promoter driven to constitutively express monomeric dsRed. For subcutaneous “priming” injections, heat-killed, swollen conidia Aspergillus fumigatus strain Af-BP was used. For the Aspergillus hyphal extract used in ROS assay, A. fumigatus strain Af-BP hyphae were pulverized in liquid nitrogen, filtered through a 30 μm pre-separation filter (Miltenyi Biotec) and protein measured by the BCA method (Pierce). Aspergillus hyphal extracts (AspHE) were stored at −20° C. and used at a final concentration of 1 mg/ml.
A hyphal coincubation assay was used to study the ability of murine and human neutrophils to inhibit A. fumigatus hyphal growth as described. Briefly, 12,500 A. fumigatus dsRed expressing conidia (strain Af-dsRed) per 200 μl Sabouraud dextrose media were added to wells of black-walled 96 well plates with an optically clear bottom (CoStar 3720). After 6 h, the conidia had germinated and the hyphae became adherent to the wells, at which time the medium was removed.
as §1

## O=[N+]([O-])c1ccc2c(c1)S(=O)(=O)C=C2 [Stattic]
[1]; FIG. 5D
  IL-17A protein: ablated
[1]; FIG. 5E
  Il17a gene expression: ablated
[2]; plus rhIL-17A
  ROS production: increased ROS
[2]; without rhIL-17A
  ROS production: no increase in ROS
[3]; plus rhIL-17A
  fluorescent fungal mass: decreased fungal mass
[3]; without rhIL-17A
  fluorescent fungal mass: no increase in ROS (FIG. 6E) or decrease in fluorescent fungal mass
